Assay results taken from publication PMC10914734 (Signal Transduction and Targeted Therapy, 2024).
Where two headings read alike, the source gives them in different places.

How the values were obtained:
SARS-CoV PsV = test: microbe, parasite or virus in culture; type: cell-based; conditions: Severe acute respiratory syndrome coronavirus, Huh-7, read-out: EC50, SARS-CoV PsV
MERS-CoV PsV = test: microbe, parasite or virus in culture; type: cell-based; conditions: Middle East respiratory syndrome-related coronavirus, Huh-7, read-out: EC50, MERS-CoV PsV
HCoV-OC43 [1] = test: microbe, parasite or virus in culture; type: cell-based; conditions: Betacoronavirus 1, OC43, RD, read-out: EC50, authentic HCoV-OC43
Human CTSC = Human CTSC (Homo sapiens, UniProt P53634); test: biochemical
Chain of Human CTSC (P53634 25-463): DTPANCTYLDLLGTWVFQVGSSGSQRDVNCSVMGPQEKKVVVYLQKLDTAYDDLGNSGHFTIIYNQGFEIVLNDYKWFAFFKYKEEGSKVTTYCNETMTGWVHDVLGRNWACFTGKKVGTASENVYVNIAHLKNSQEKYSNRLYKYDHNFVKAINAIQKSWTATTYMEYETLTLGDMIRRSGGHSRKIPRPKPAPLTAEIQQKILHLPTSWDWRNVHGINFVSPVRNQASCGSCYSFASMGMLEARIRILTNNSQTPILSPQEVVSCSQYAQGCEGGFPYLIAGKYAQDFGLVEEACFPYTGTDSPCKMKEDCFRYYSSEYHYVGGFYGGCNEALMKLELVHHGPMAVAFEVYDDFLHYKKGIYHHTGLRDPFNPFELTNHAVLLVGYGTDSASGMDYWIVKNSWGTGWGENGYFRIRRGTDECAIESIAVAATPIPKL

Human CTSE = Human CTSE (Homo sapiens, UniProt P14091); test: Protease panel, CTSE inhibition; type: biochemical; conditions: at a concentration of 20 μM; read-out: Inhibition rate, Human CTSE
Chain of Human CTSE (P14091 54-396): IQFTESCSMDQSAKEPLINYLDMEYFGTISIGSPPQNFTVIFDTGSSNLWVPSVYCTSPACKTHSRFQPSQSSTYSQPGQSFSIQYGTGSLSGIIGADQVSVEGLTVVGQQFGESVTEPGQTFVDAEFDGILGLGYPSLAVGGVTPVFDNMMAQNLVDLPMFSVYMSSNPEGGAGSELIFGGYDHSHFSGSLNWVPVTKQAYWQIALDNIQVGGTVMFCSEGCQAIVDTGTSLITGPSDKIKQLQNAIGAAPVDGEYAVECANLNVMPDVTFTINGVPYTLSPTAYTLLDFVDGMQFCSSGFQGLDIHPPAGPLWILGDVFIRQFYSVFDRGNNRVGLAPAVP

Pharmacokinetics in mice = type: in vivo; conditions: for AUC(0-inf): read-out: AUCINF_obs; for MRT inf: read-out: MRTINF_obs
SARS-CoV-2 PsV = type: cell-based; conditions: 500 nM
HCoV-OC43 [2] = test: Protective effect against HCoV-OC43 infection in newborn mice; type: in vivo
Method: We also further assessed the in vivo antiviral activity of compound 14b against HCoV-OC43 infection in a mouse model. In the HCoV-OC43 infection mouse model, we treated newborn mice with 14b at a dose of 5 mg/kg by intraperitoneal injection 24 h after challenge with HCoV-OC43 at 100 TCID50.
Protective effect of 14b against HCoV-OC43 in vivo was assessed as previously reported.[45] All newborn mice were challenged with HCoV-OC43 (100 TCID50) by intranasal administration. For mice in the 14b-treated group, 14b (5 mg/kg) in a proper solution (1% dimethyl sulfoxide, 9% polyethylene glycol 300, and 90% aqueous solution containing 28% (w/v) hydroxypropyl β-cyclodextrin, volume ratio) was given by intraperitoneal injection. Mice in the viral control group were treated with PBS. Body weight and survival rate of these mice were then observed up to the 15th day post-infection.

[3] = male, ICR, mouse, plasma, ip, 14a, i.p. (5 mg/kg)
[4] = male, ICR, mouse, plasma, iv, 14a, i.v. (5 mg/kg)
[5] = male, ICR, mouse, plasma, po, 14a, p.o. (10 mg/kg)
[6] = CD-1, mouse, plasma, po, 14b, p.o. (20 mg/kg)
[7] = male, CD-1, mouse, plasma, ip, 14b, i.p. (20 mg/kg)
[8] = male, CD-1, mouse, plasma, iv, 14b, i.v. (10 mg/kg)

## O=C(NCc1ccccc1)C(=O)[C@H](C[C@@H]1CCCNC1=O)NC(=O)[C@H](Cc1ccc(F)cc1)NC(=O)c1cc2ccccc2o1 [14a, N-((S)-1-(((S)-4-(benzylamino)-3,4-dioxo-1-((S)-2-oxopiperidin-3-yl)butan-2-yl)amino)-3-(4-fluorophenyl)-1-oxopropan-2-yl)benzofuran-2-carboxamide]
SARS-CoV PsV
  EC50: 8.24 ± 2.98 nM
MERS-CoV PsV
  EC50: 29.8 ± 5.72 nM
HCoV-OC43 [1]
  EC50: 3380 ± 2070 nM
Human CTSC
  IC50: 181 ± 30.4 nM
Human CTSE
  inhibition: 13 ± 1%
Pharmacokinetics in mice; 14a, i.v. (5 mg/kg)
  Vss_obs: 9.5 L/kg
Pharmacokinetics in mice; [3]
  AUC(0-t): 1260 ng·h/mL
  Cmax: 1120 ng/mL
  Tmax: 0.25 h
  bioavailability: 101%
  half-life: 7.01 h
  AUC(0-inf): 1270 ng·h/mL
  MRT inf: 1.82 h
Pharmacokinetics in mice; male, ICR, mouse, plasma, ip, 14a, intraperitoneal (10 mg/kg) as printed in the text, read-out: area under the curve (AUC)
  AUC: 1270 ng·h/mL
Pharmacokinetics in mice; [4]
  AUC(0-t): 1220 ng·h/mL
  clearance: 66 mL/min/kg
  half-life: 18.5 h
  AUC(0-inf): 1260 ng·h/mL
  MRT inf: 2.4 h
Pharmacokinetics in mice; [5]
  AUC(0-t): 125 ng·h/mL
  Cmax: 124 ng/mL
  Tmax: 0.25 h
  bioavailability: 5%
  half-life: 1.09 h
  AUC(0-inf): 126 ng·h/mL
  MRT inf: 1.09 h
SARS-CoV-2 PsV
  Antiviral activity by time of addition: lost most of their antiviral activity

## O=C(NCc1ccccc1)C(=O)[C@H](C[C@@H]1CCCNC1=O)NC(=O)[C@H](CC1CCCCC1)NC(=O)c1cc2ccccc2o1 [14b, N-((S)-1-(((S)-4-(benzylamino)-3,4-dioxo-1-((S)-2-oxopiperidin-3-yl)butan-2-yl)amino)-3-cyclohexyl-1-oxopropan-2-yl)benzofuran-2-carboxamide]
SARS-CoV PsV
  EC50: 10.1 ± 7.77 nM
MERS-CoV PsV
  EC50: 13.6 ± 3.05 nM
HCoV-OC43 [1]
  EC50: 1310 ± 320 nM
Human CTSC; read-out: IC50, Human CTSC
  IC50: 66.2 ± 7.85 nM
Human CTSE
  inhibition: 11 ± 2%
Pharmacokinetics in mice; 14b, i.v. (10 mg/kg)
  Vss_obs: 6.419 ± 2.698 L/kg
Pharmacokinetics in mice; [6]
  AUC(0-t): 463 ± 225 ng·h/mL
  Cmax: 290 ± 189 ng/mL
  Tmax: 0.25 h
  bioavailability: 8%
  half-life: 1.32 ± 0.77 h
  MRT inf: 2.11 ± 0.87 h
Pharmacokinetics in mice; [7]
  AUC(0-t): 7300 ± 782 ng·h/mL
  Cmax: 3270 ± 374 ng/mL
  Tmax: 0.18 ± 0.12 h
  bioavailability: 128%
  half-life: 5.77 h
  AUC(0-inf): 7640 ng·h/mL
  MRT inf: 5.34 ± 1.81 h
Pharmacokinetics in mice; [8]
  AUC(0-t): 2900 ± 1020 ng·h/mL
  clearance: 62.5 ± 27.4 mL/min/kg
  half-life: 3.34 ± 2.38 h
  AUC(0-inf): 2980 ng·h/mL
  MRT inf: 1.88 ± 1.08 h
Pharmacokinetics in mice; male, CD-1, mouse, plasma, po, 14b, p.o. (20 mg/kg)
  AUC(0-inf): 488 ng·h/mL
HCoV-OC43 [2]; HCoV-OC43 100 TCID50, 5 mg/kg intraperitoneal injection
  Body weight of infected mice: either mildly decreased or rapidly recovered
HCoV-OC43 [2]; HCoV-OC43 100 TCID50, 5 mg/kg intraperitoneal injection 24 h after challenge
  Final survival rate: 60%
SARS-CoV-2 PsV
  Antiviral activity by time of addition: lost most of their antiviral activity
